According to patent publication US9527885B2, “Hepatitis C virus inhibitors” (BRISTOL-MYERS SQUIBB COMPANY, priority 2011, dated 2016):
Where two headings read alike, the source gives them in different places.

Legend:
[1] = system: HCV genotype 1a (H77 strain) replicon in HUH-7 cells; test: HCV replicon luciferase reporter assay, genotype 1a; type: cell-based; conditions: Hepatitis C virus, Huh-7, 72 h, HCV genotype 1a replicon luciferase, 3 days incubation, read-out: LE_1a (EC50, range)
Summary of the method: (§1)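 Twenty-point, threefold compound titrations (0.5% DMSO) were incubated 3 days at 37 °C with 3.0×10^3 HUH-7 cells/well in 4% FCS. The cells stably carried luciferase replicons: genotype 1b Con1 (S1179I) or 1a H77 (NS3 P1496L, NS5A S2204I). Renilla signal was read after 2 h with 7.5 μM EnduRen, and EC50 was taken from a four-parameter logistic fit. Cytotoxicity (CC50) was measured by Cell Titer-Blue, 8 h.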

[2] = system: HCV genotype 1b (Con1) replicon in HUH-7 cells; test: HCV replicon luciferase reporter assay, genotype 1b; type: cell-based; conditions: Hepatitis C virus, 72 h, HCV genotype 1b replicon luciferase, 3 days incubation, read-out: LE_1b (EC50, range)
Summary of the method: as §1

| SMILES | EC50 ([1]; class symbols) [nM] | EC50 ([2]; class symbols) [nM] | EC50 ([1]; range class) [nM] | EC50 ([2]; range class) [nM] |
| --- | --- | --- | --- | --- |
| CCOc1ccc2c(O[C@@H]3C[C@H]4C(=O)N[C@]5(C(=O)NS(=O)(=O)C6CC6)C[C@H]5/C=C\CC[C@@H](C)C[C@@H](C)[C@H](NC(=O)OC(C)(C)C(F)(F)F)C(=O)N4C3)nccc2c1 [Compound 5130, 1,1,1-trifluoro-2-methylpropan-2-yl ((2R,6S,7R,9R,13aS,14aR,16aS,Z)-14a-((cyclopropylsulfonyl)carbamoyl)-2-((6-ethoxyisoquinolin-1-yl)oxy)-7,9-dimethyl-5,16-dioxo-1,2,3,5,6,7,8,9,10,11,13a,14,14a,15,16,16a-hexadecahydrocyclopropa[e]pyrrolo[1,2-a][1,4]diazacyclopentadecin-6-yl)carbamate] | < 5.46 | < 5.46 |  |  |
| CC[C@@H]1C[C@H](C)CC/C=C\[C@@H]2C[C@@]2(C(=O)NS(=O)(=O)C2CC2)NC(=O)[C@@H]2C[C@@H](Oc3ncc(OC)c4ccccc34)CN2C(=O)[C@H]1NC(=O)OC(C)(C)C(F)(F)F [Compound 4008, 1,1,1-trifluoro-2-methylpropan-2-yl (2R,6S,7R,9R,13aS,14aR,16aS,Z)-14a-(cyclopropylsulfonylcarbamoyl)-7-ethyl-2-(4-methoxyisoquinolin-1-yloxy)-9-methyl-5,16-dioxo-1,2,3,5,6,7,8,9,10,11,13a,14,14a,15,16,16a-hexadecahydrocyclopropa[e]pyrrolo[1,2-a][1,4]diazacyclopentadecin-6-ylcarbamate] | < 5.46 | < 5.46 |  |  |
| CCCOc1ccc2c(O[C@@H]3C[C@H]4C(=O)N[C@]5(C(=O)NS(=O)(=O)C6CC6)C[C@H]5/C=C\CC[C@@H](C)C[C@@H](C)[C@H](NC(=O)OC(C(F)(F)F)(C(Cl)(Cl)Cl)C(Cl)(Cl)Cl)C(=O)N4C3)nccc2c1 [Compound 5173, 1,1,1,3,3,3-hexachloro-2-(trifluoromethyl)propan-2-yl ((2R,6S,7R,9R,13aS,14aR,16aS,Z)-14a-((cyclopropylsulfonyl)carbamoyl)-7,9-dimethyl-5,16-dioxo-2-((6-propoxyisoquinolin-1-yl)oxy)-1,2,3,5,6,7,8,9,10,11,13a,14,14a,15,16,16a-hexadecahydrocyclopropa[e]pyrrolo[1,2-a][1,4]diazacyclopentadecin-6-yl)carbamate] |  |  | < 5.46 | < 5.46 |
| COc1ccc2c(O[C@@H]3C[C@H]4C(=O)N[C@]5(C(=O)NS(=O)(=O)C6CC6)C[C@H]5/C=C\CC[C@H](C)C[C@@H](C)[C@H](NC(=O)O[C@@H]5C[C@@H]6C[C@@H]6C5)C(=O)N4C3)nc(-c3ccc(N4CCOCC4)cc3)cc2c1 [Compound 5194, (1R,3r,5S)-bicyclo[3.1.0]hexan-3-yl ((2R,6S,7R,9S,13aS,14aR,16aS,Z)-14a-((cyclopropylsulfonyl)carbamoyl)-2-((6-methoxy-3-(4-morpholinophenyl)isoquinolin-1-yl)oxy)-7,9-dimethyl-5,16-dioxo-1,2,3,5,6,7,8,9,10,11,13a,14,14a,15,16,16a-hexadecahydrocyclopropa[e]pyrrolo[1,2-a][1,4]diazacyclopentadecin-6-yl)carbamate] |  |  | < 5.46 | < 5.46 |
| CC[C@@H]1C[C@H](C)CC/C=C\[C@@H]2C[C@@]2(C(=O)NS(=O)(=O)C2(C)CC2)NC(=O)[C@@H]2C[C@@H](Oc3ncc(OC)c4ccc(F)cc34)CN2C(=O)[C@H]1NC(=O)OC(C)(C)C(F)(F)F [Compound 4186, 1,1,1-trifluoro-2-methylpropan-2-yl (2R,6S,7R,9R,13aS,14aR,16aS,Z)-7-ethyl-2-(7-fluoro-4-methoxyisoquinolin-1-yloxy)-9-methyl-14a-(1-methylcyclopropylsulfonylcarbamoyl)-5,16-dioxo-1,2,3,5,6,7,8,9,10,11,13a,14,14a,15,16,16a-hexadecahydrocyclopropa[e]pyrrolo[1,2-a][1,4]diazacyclopentadecin-6-ylcarbamate] | < 5.46 | < 5.46 |  |  |
| [2H]C([2H])([2H])C(OC(=O)N[C@@H]1C(=O)N2C[C@H](Oc3nccc4cc(OC)ccc34)C[C@H]2C(=O)N[C@]2(C(=O)NS(=O)(=O)C3(C)CC3)C[C@H]2/C=C\CC[C@@H](C)C[C@H]1C)(C([2H])([2H])[2H])C(F)(F)F [Compound 5175, 1,1,1,3,3,3-hexadeutero-2-(trifluoromethyl)propan-2-yl ((2R,6S,7R,9R,13aS,14aR,16aS,Z)-2-((6-methoxyisoquinolin-1-yl)oxy)-7,9-dimethyl-14a-(((1-methylcyclopropyl)sulfonyl)carbamoyl)-5,16-dioxo-1,2,3,5,6,7,8,9,10,11,13a,14,14a,15,16,16a-hexadecahydrocyclopropa[e]pyrrolo[1,2-a][1,4]diazacyclopentadecin-6-yl)carbamate] |  |  | < 5.46 | < 5.46 |
| CC[C@@H]1C[C@H](C)CC/C=C\[C@@H]2C[C@@]2(C(=O)NS(=O)(=O)C2(C)CC2)NC(=O)[C@@H]2C[C@@H](Oc3nc4c(c5ccccc35)OCCC4)CN2C(=O)[C@H]1NC(=O)OC(C)(C)C(F)(F)F [Compound 6028, 1,1,1-trifluoro-2-methylpropan-2-yl ((2R,6S,7R,9R,13aS,14aR,16aS,Z)-2-((3,4-dihydro-2H-pyrano[3,2-c]isoquinolin-6-yl)oxy)-7-ethyl-9-methyl-14a-(((1-methylcyclopropyl)sulfonyl)carbamoyl)-5,16-dioxo-1,2,3,5,6,7,8,9,10,11,13a,14,14a,15,16,16a-hexadecahydrocyclopropa[e]pyrrolo[1,2-a][1,4]diazacyclopentadecin-6-yl)carbamate] |  |  | < 5.46 | < 5.46 |
| COc1ccc2c(O[C@@H]3C[C@H]4C(=O)N[C@]5(C(=O)NS(=O)(=O)C6(CF)CC6)C[C@H]5/C=C\CC[C@@H](C)C[C@@H](C)[C@H](NC(=O)OC(C)(C)C(F)(F)F)C(=O)N4C3)cc(Cl)nc2c1 [Compound 4199, 1,1,1-trifluoro-2-methylpropan-2-yl (2R,6S,7R,9R,13aS,14aR,16aS,Z)-2-(2-chloro-7-methoxyquinolin-4-yloxy)-14a-(1-(fluoromethyl)cyclopropylsulfonylcarbamoyl)-7,9-dimethyl-5,16-dioxo-1,2,3,5,6,7,8,9,10,11,13a,14,14a,15,16,16a-hexadecahydrocyclopropa[e]pyrrolo[1,2-a][1,4]diazacyclopentadecin-6-ylcarbamate] | < 5.46 | < 5.46 |  |  |
| CC[C@@H]1C[C@H](C)CC/C=C\[C@@H]2C[C@@]2(C(=O)NS(=O)(=O)C2CC2)NC(=O)[C@@H]2C[C@@H](Oc3cnc4ccc(OC)cc4n3)CN2C(=O)[C@H]1NC(=O)OC(C)(C)C(F)(F)F [Compound 4194, 1,1,1-trifluoro-2-methylpropan-2-yl (2R,6S,7R,9R,13aS,14aR,16aS,Z)-14a-(cyclopropylsulfonylcarbamoyl)-7-ethyl-2-(7-methoxyquinoxalin-2-yloxy)-9-methyl-5,16-dioxo-1,2,3,5,6,7,8,9,10,11,13a,14,14a,15,16,16a-hexadecahydrocyclopropa[e]pyrrolo[1,2-a][1,4]diazacyclopentadecin-6-ylcarbamate] | < 5.46 | < 5.46 |  |  |
| CCOc1ccc2c(O[C@@H]3C[C@H]4C(=O)N[C@]5(C(=O)NS(=O)(=O)C6CC6)C[C@H]5/C=C\CC[C@H](C)C[C@@H](C)[C@H](NC(=O)O[C@@H]5C[C@@H]6C[C@@H]6C5)C(=O)N4C3)nccc2c1 [Compound 5131, (1R,3r,5S)-bicyclo[3.1.0]hexan-3-yl ((2R,6S,7R,9S,13aS,14aR,16aS,Z)-14a-((cyclopropylsulfonyl)carbamoyl)-2-((6-ethoxyisoquinolin-1-yl)oxy)-7,9-dimethyl-5,16-dioxo-1,2,3,5,6,7,8,9,10,11,13a,14,14a,15,16,16a-hexadecahydrocyclopropa[e]pyrrolo[1,2-a][1,4]diazacyclopentadecin-6-yl)carbamate] | < 5.46 | < 5.46 |  |  |
| CCOc1ccc2c(O[C@@H]3C[C@H]4C(=O)N[C@]5(C(=O)NS(=O)(=O)C6CC6)C[C@H]5/C=C\CC[C@@H](C)C[C@@H](C)[C@H](NC(=O)O[C@@H]5C[C@@H]6C[C@@H]6C5)C(=O)N4C3)nccc2c1 [Compound 5132, (1R,3r,5S)-bicyclo[3.1.0]hexan-3-yl ((2R,6S,7R,9R,13aS,14aR,16aS,Z)-14a-((cyclopropylsulfonyl)carbamoyl)-2-((6-ethoxyisoquinolin-1-yl)oxy)-7,9-dimethyl-5,16-dioxo-1,2,3,5,6,7,8,9,10,11,13a,14,14a,15,16,16a-hexadecahydrocyclopropa[e]pyrrolo[1,2-a][1,4]diazacyclopentadecin-6-yl)carbamate] | < 5.46 | < 5.46 |  |  |
| COc1ccc2c(O[C@@H]3C[C@H]4C(=O)N[C@]5(C(=O)NS(=O)(=O)C6CC6)C[C@H]5/C=C\CC[C@@H](C)C[C@@H](C)[C@H](NC(=O)O[C@@H]5C[C@@H]6C[C@@H]6C5)C(=O)N4C3)nc(-c3ccc(OC(C)C)cn3)cc2c1 [Compound 5209, (1R,3r,5S)-bicyclo[3.1.0]hexan-3-yl ((2R,6S,7R,9R,13aS,14aR,16aS,Z)-14a-((cyclopropylsulfonyl)carbamoyl)-2-((3-(5-isopropoxypyridin-2-yl)-6-methoxyisoquinolin-1-yl)oxy)-7,9-dimethyl-5,16-dioxo-1,2,3,5,6,7,8,9,10,11,13a,14,14a,15,16,16a-hexadecahydrocyclopropa[e]pyrrolo[1,2-a][1,4]diazacyclopentadecin-6-yl)carbamate] |  |  | < 5.46 | < 5.46 |
